Data reported in patent publication US6531446B1, “Peptides having biological activity” (Korea Advanced Institute of Science and Technology, priority 1998, dated 2003).
Read-outs that look alike come from different tables or passages of the source. No end group written: not given here.

Assays:
Type in all cases: cell-based
Bacillus subtilis = test system: Bacillus subtilis
Method: (§1) By using the peptides as in Example 1, the minimal inhibitory concentration of the peptides were determined against a variety of microorganisms. Bacteria and fungi were incubated overnight in Mller-Hinton and Saboraud media, respectively, at 37 and 30° C., respectively, and were inoculated in media for 2 hours to a midlogarithmic phase. After diluting the bacteria and fungi to 10^4-10^5 per 1 ml, they were inoculated into a 96-well plate containing serially diluted peptides and incubated for additional 18 hours. The minimal inhibitory concentration was determined at a concentration that inhibits the growth of the microorganisms by measuring the absorbance.

Candida albicans = test system: Candida albicans
Method: as §1

Cryptococcus neoformans = test system: Cryptococcus neoformans
Method: as §1

Escherichia coli = test system: Escherichia coli
Method: as §1

Saccharomyces cerevisiae = test system: Saccharomyces cerevisiae
Method: as §1

Salmonella typhimurium = test system: Salmonella typhimurium
Method: as §1

Serratia sp. = test system: Serratia sp.
Method: as §1

Staphylococcus aureus = test system: Staphylococcus aureus
Method: as §1

Streptococcus mutans = test system: Streptococcus mutans
Method: as §1

Streptococcus pneumoniae = test system: Streptococcus pneumoniae
Method: as §1

[1] = test system: a variety of microorganisms; test: Estimation of antimicrobial activity, overall statement in words; settings: result in words
Method: as §1

Psudomonas putida = test: Minimal inhibitory concentration, 96-well broth dilution; settings: Gram-negative; second part of Table 2
Method: as §1

[2] = Gram-positive, second part of Table 2
[3] = Gram-negative, second part of Table 2

Substance | antimicrobial activity [1] | Minimal Inhibitory Concentrations (Bacillus subtilis; [2]) | Minimal Inhibitory Concentrations (Candida albicans; Fungi, second part of Table 2) | Minimal Inhibitory Concentrations (Cryptococcus neoformans; Fungi, second part of Table 2) | Minimal Inhibitory Concentrations (Escherichia coli; [3]) | Minimal Inhibitory Concentrations (Saccharomyces cerevisiae; Fungi, second part of Table 2) | Minimal Inhibitory Concentrations (Salmonella typhimurium; [3]) | Minimal Inhibitory Concentrations (Serratia sp.; [3]) | Minimal Inhibitory Concentrations (Staphylococcus aureus; [2]) | Minimal Inhibitory Concentrations (Streptococcus mutans; [2]) | Minimal Inhibitory Concentrations (Streptococcus pneumoniae; [2]) | Minimal Inhibitory Concentrations (Psudomonas putida) | also measured
PVGRVHRLLRK [Seq No. 7] | strong antimicrobial activity |  |  |  |  |  |  |  |  |  |  |  | Minimal Inhibitory Concentrations (Bacillus subtilis; 18 h): 25 µg/mL; Minimal Inhibitory Concentrations (Candida albicans; 18 h): 50 µg/mL; Minimal Inhibitory Concentrations (Cryptococcus neoformans; 18 h): 50 µg/mL; Minimal Inhibitory Concentrations (Escherichia coli; 18 h): 25 µg/mL; Minimal Inhibitory Concentrations (Saccharomyces cerevisiae; 18 h): 50 µg/mL; Minimal Inhibitory Concentrations (Salmonella typhimurium; murium, 18 h): 50 µg/mL; Minimal Inhibitory Concentrations (Serratia sp.; 18 h): 25 µg/mL; Minimal Inhibitory Concentrations (Staphylococcus aureus; 18 h): 50 µg/mL; Minimal Inhibitory Concentrations (Streptococcus mutans; 18 h): 25 µg/mL; Minimal Inhibitory Concentrations (Streptococcus pneumoniae; 18 h): 50 µg/mL
RAGLQFPVGRLLR [Buf(5-13)[RLLR]] |  | 32 μg/m | 32 μg/m | 32 μg/m | 32 μg/m | 32 μg/m | 16 μg/m | 32 μg/m | 64 μg/m | 16 μg/m | 32 μg/m | 32 μg/m | 
Arg Ala Gly Leu Gln Phe Pro Val Gly Arg Val His Arg Leu Leu Arg Lys-NH2 (RAGLQFPVGRVHRLLRK-NH2) [Seq No. 16] |  | 1 μg/m | 2 μg/m | 1 μg/m | 2 μg/m | 2 μg/m | 2 μg/m | 1 μg/m | 1 μg/m | 0.5 μg/m | 1 μg/m | 2 μg/m | 
RKGLQKLVGRVHRLLRK [Seq No. 12] |  | 18 μg/m | 16 μg/m | 8 μg/m | 18 μg/m | 4 μg/m | 18 μg/m | 4 μg/m | 18 μg/m | 36 μg/m | 18 μg/m | 36 μg/m | 
RAGLQFPVGRLLRRLLRRLLR [Seq No. 15] | especially potent antimicrobial activity | 1 μg/m | 2 μg/m | 1 μg/m | 1 μg/m | 4 μg/m | 1 μg/m | 1 μg/m | 1 μg/m | 0.5 μg/m | 1 μg/m | 1 μg/m | 
RAGLQFPVGRLLRRLLR [Buf(5-13)[RLLR]2] |  | 4 μg/m | 4 μg/m | 4 μg/m | 8 μg/m | 8 μg/m | 4 μg/m | 8 μg/m | 8 μg/m | 16 μg/m | 8 μg/m | 16 μg/m | 
RLLRRLLRRLLR [(RLLR)3] |  | 16 μg/m | 32 μg/m | 32 μg/m | 32 μg/m | 32 μg/m | 16 μg/m | 16 μg/m | 16 μg/m | 16 μg/m | 16 μg/m | 16 μg/m | 
RLLRRLLRRLLRRLLRRLLR [Seq No. 13] | strong antimicrobial activities | 2 μg/m | 8 μg/m | 8 μg/m | 2 μg/m | 8 μg/m | 2 μg/m | 1 μg/m | 1 μg/m | 2 μg/m | 2 μg/m | 2 μg/m | 
RVHRLLRRVHRLLRRVHRLLR [Seq No. 14] |  | 6 μg/m | >200 μg/m | 100 μg/m | 100 μg/m | >200 μg/m | 50 μg/m | 3 μg/m | 50 μg/m | 25 μg/m | 100 μg/m | 50 μg/m | 
RLLRRLLRRLLRRLLR [(RLLR)4] | strong antimicrobial activities | 2 μg/m | 8 μg/m | 8 μg/m | 2 μg/m | 8 μg/m | 2 μg/m | 1 μg/m | 1 μg/m | 2 μg/m | 2 μg/m | 2 μg/m | 
